# In patent EP1046401A2, “Fatty acid derivative labelled with a radioactive transition metal” (NIHON MEDI-PHYSICS Co., Ltd., priority 1999, dated 2000):
# Tests used:
# liver slice [1] = test: Determination of the metabolites by in vitro test (liver slice, reversed phase HPLC); assay type: in vitro ADME, rat; conditions: 2-bromooctanoic acid added as inhibitor for the β-oxidation, liver slice incubation
# Procedure: (§1) Under anesthetized, a rat was subjected to celiotomy and bleeded by perfusion via the portal vein with 20 mM of tris-HCl buffer solution (containing 100 mM of potassium chloride, 5 mM of magnesium chloride, 5 mM of potassium dihydrogen phosphate, pH 7.4) which is saturated with O2/CO2 (95/5) gas. Then, the liver was excised and pieces of liver slice having the thickness of 300 µm were prepared by using Stadie, Riggs type of slicer (manufactures by NATSUME SEISAKUSHO). After weighing, each pieces of liver slices were divided into two groups. […] The samples were analyzed by reversed phase HPLC under the same conditions employed in Determination of metabolites by in vivo test. Survival rate of the cells in the liver slice sample used in the test was determined by measuring the activity of lactic acid dehydrogenase (LDH) leaked into the culture medium. […]
# In conducting the in vitro experiment for determining the metabolite more than 90% of the radioactivity in liver homogenate was extracted.
# 21.2 ± 3.0% of the whole radioactivity was eluted at the fraction retained at 17 minutes. […]
# liver slice [2] = test: Survival of cells in the liver slice by lactic acid dehydrogenase (LDH) leaked into the medium; assay type: cell-based, rat; conditions: inhibition group (2-bromooctanoic acid 100 µM), at the termination point of experiments; no significant difference from control group
# Procedure: as §1, with “groups. One is inhibiting group which was preincubated in 20mM tris-HCl buffer solution at 37°C for 5 minutes, in the presence of 2-bromooctanoic acid (the final concentration: 100 µM) as β-oxidation inhibitor, and another one is control group which was preincubated in 20 mM tris-HCl buffer solution at 37°C for 5 minutes, without the inhibitor. Next, [^99mTc]MAMA-HA (3.7 MBq) was added, and incubation was carried out under bubbling O2/CO2 (95/5) gas at 37°C for 60 minutes with shaking 60 times per minute.” for “groups.”
smiles,measurement,setting,value
CCCCCCC(Br)C(=O)O (centres unmarked) [2-bromooctanoic acid],formation of [^99mTc]MAMA-BA from [^99mTc]MAMA-HA,liver slice [1],inhibited completely
same,LDH activities,liver slice [2],"3,285 ± 367 IU/L"
